Key:
human uPA = biological target: T1, human uPA (Homo sapiens, UniProt P00749); test: in vitro uPA chromogenic substrate assay (glutaryl-glycyl-arginyl-p-nitroanilide, absorbance 405nm); assay type: biochemical; conditions: for inhibition at 20 µM: read-out: % INHIBITION OF uPA ACTIVITY 20 mM INHIBITOR; for inhibition at 100 µM: read-out: % INHIBITION OF uPA ACTIVITY 100 mM INHIBITOR
T1 construct: purchased
From the text: The values for the relative inhibitions contained in Table III are obtained by the following procedure.
An in vitro assay employs a commercially available synthetic chromogenic substrate, glutaryl-glycyl-arginyl-p-nitroanilide, and a commercially available human uPA. The uPA catalyzes the hydrolysis of the bond between the arginyl and p-nitroanilide moieties. The p-nitroaniline released upon hydrolysis of the substrate absorbs light at a wavelength of 405nm. The enzymatic activity is quantitated as a function of the increase in the absorbance of the solution at 405nm as measured with a spectrophotometer.
In order to obtain the data, stock solutions of the amiloride-related pyrazine derivative compounds were included in the assays, and the release of p-nitroaniline as followed by the change in absorbance at 405nm of the reaction mixture was compared to a control reaction mixture in which no amiloride-related pyrazine derivative compound was present.

[1] = biological target: tissue-type plasminogen activator (tPA) (Homo sapiens, UniProt P00750); conditions: in vitro, result in words; cited from earlier work
tissue-type plasminogen activator (tPA), sequence (P00750 36-562, species assumed): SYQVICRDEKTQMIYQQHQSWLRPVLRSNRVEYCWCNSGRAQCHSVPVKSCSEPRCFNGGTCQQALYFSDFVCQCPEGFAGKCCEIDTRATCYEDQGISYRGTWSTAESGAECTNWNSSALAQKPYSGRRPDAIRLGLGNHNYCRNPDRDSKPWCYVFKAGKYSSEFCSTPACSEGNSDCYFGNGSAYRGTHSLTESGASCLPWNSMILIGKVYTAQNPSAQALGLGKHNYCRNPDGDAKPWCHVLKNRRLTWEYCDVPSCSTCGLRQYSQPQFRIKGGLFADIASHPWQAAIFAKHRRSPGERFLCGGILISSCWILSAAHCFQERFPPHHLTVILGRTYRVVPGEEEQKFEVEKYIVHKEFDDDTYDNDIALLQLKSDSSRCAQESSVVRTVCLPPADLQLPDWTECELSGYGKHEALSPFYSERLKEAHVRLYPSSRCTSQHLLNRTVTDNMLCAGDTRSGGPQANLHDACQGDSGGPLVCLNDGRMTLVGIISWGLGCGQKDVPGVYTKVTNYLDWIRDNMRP

Corneal Vessels = test: rabbit corneal neovascularization model (PGE1 slow release pellet, amiloride agarose pellet implant); assay type: in vivo; conditions: result in words
From the text: A series of experiments have been conducted employing a rabbit model.

plasmin = plasmin (Homo sapiens, UniProt P00747); conditions: in vitro, result in words; cited from earlier work
plasmin, sequence (P00747 97-580): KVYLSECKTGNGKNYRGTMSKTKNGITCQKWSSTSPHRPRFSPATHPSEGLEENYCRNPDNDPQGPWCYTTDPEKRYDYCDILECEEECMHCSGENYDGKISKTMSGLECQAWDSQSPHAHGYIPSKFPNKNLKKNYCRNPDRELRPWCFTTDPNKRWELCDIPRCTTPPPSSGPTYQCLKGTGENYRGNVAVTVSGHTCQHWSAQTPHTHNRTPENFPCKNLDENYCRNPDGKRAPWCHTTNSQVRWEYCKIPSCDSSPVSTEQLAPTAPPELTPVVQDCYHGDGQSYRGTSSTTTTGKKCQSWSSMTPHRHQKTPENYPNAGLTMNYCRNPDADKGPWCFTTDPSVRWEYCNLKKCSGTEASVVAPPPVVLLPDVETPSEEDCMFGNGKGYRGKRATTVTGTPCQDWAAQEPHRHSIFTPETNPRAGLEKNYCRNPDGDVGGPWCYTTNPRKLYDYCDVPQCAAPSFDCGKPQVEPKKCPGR
plasmin, sequence (P00747 581-810): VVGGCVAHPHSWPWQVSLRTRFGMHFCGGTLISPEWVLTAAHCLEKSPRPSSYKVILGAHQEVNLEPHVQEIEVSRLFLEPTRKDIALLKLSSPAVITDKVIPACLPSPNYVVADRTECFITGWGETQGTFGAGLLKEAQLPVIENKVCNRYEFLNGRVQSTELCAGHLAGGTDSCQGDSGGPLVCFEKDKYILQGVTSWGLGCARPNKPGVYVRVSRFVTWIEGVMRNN

plasma kallikrein = plasma kallikrein (Homo sapiens, UniProt P03952); conditions: in vitro, result in words; cited from earlier work
plasma kallikrein, sequence (P03952 20-638, species assumed): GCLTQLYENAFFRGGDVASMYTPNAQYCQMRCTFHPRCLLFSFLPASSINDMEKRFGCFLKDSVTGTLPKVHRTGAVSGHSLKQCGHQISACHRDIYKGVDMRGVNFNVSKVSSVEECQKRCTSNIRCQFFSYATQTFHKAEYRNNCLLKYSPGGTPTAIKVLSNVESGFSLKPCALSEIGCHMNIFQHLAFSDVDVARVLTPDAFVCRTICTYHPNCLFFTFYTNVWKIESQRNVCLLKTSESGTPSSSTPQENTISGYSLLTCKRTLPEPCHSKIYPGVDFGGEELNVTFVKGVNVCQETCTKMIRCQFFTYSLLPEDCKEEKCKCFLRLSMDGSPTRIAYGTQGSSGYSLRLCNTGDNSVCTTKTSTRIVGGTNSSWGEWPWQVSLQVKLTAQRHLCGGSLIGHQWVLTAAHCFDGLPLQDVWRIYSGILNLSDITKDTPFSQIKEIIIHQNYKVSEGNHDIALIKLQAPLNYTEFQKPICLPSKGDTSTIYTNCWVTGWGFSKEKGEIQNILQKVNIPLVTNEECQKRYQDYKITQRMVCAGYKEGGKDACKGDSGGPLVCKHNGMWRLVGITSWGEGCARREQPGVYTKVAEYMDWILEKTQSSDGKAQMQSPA

thrombin = thrombin (Homo sapiens, UniProt P00734); conditions: in vitro, result in words; cited from earlier work
circulating cancer cells = conditions: continuously administered orally to rats, result in words; cited from earlier work

Row | SMILES | inhibition at 20 µM (human uPA) | inhibition at 100 µM (human uPA) | also measured
1 | NC(N)=NC(=O)c1ncc(N)nc1N [Compound 6-HA, 3,5-diamino-N-(diaminomethylene)pyrazinecarboxamide] | 15.3% | 38.2% | –
2 | CN(C)c1nc(N)c(C(=O)N=C(N)N)nc1Cl [DMA, 3-amino-5-dimethylamino-6-chloro-N--(diaminomethylene)pyrazinecarboxamide] | 41.1% | 48.3% | –
3 | NC(N)=NC(=O)c1nc(Cl)c(N2CCCCCC2)nc1N [HMA, 3-amino-5-(1-homopiperidinyl)-6--chloro-N-(diaminomethylene)pyrazinecarboxamide] | 51.1% | 77% | –
4 | Cc1ccc(CNC(=N)NC(=O)c2nc(Cl)c(NCc3ccc(Cl)cc3)nc2N)c(C)c1 [CBDMB, 3-amino-5-(N-4-chlorobenzylamino)-6-chloro-N-[(2,4-dimethylbenzyl)aminoaminomethylene]pyrazinecarboxamide] | 41.7% | 63.4% | –
5 | NC(N)=NC(=O)c1nccnc1N [5,6-HA, 3-amino-N-(diaminomethylene)pyrazinecarboxamide] | 2.1% | 11.1% | –
6 | NC(=Nc1ccccc1)NC(=O)c1nc(Cl)c(N)nc1N [PHENAMIL, 3,5-diamino-6-chloro-N--(phenylaminoaminomethylene)pyrazinecarboxamide] | 1.7% | 5.5% | –
7 | CN(C)c1nc(N)c(C(=O)N=C(N)N)nc1I [IDMA, 3-amino-5-(N,N-dimethylamino)-6-iodo-N--(diaminomethylene)pyrazinecarboxamide] | 40.3% | 73.1% | –
8 | N=C(N)NC(=O)c1nc(Cl)c(N)nc1N [Amiloride, 3,5-diamino-6-chloro-N--(diaminomethylene)pyrazinecarboxamide] | – | – | inhibition of tissue-type plasminogen activator (tPA) [1]: does not inhibit; inhibition of neovascularization (Corneal Vessels; amiloride-HCl·2H₂O agarose pellets in rabbit cornea): inhibited neovascularization in a dose dependent manner; reversal of neovascularization already produced (Corneal Vessels): reverse a portion of the neovascularization that had already been produced; inhibition of plasmin (plasmin): does not inhibit; inhibition of plasma kallikrein (plasma kallikrein): does not inhibit; inhibition of thrombin (thrombin): does not inhibit; inhibition of metastasis into the lung (circulating cancer cells): inhibited the metastasis of circulating cancer cells into the lung of the rat
9 | NC(N)=NC(=O)c1nc(Cl)c(Cl)nc1N [Compound 5-ClA, 3--amino-5,6-dichloro-N-(diaminomethylene)pyrazinecarboxamide] | 5% | 20.7% | –
10 | CCN(c1nc(N)c(C(=O)N=C(N)N)nc1Cl)C(C)C [EIPA, 3-amino-5-(N-ethyl-N--isopropylamino)-6-chloro-N-(diaminomethylene)pyrazinecarboxamide] | 28.3% | 56% | –
11 | NC(N)=NC(=O)c1nc(I)c(N)nc1N [Compound 6-IA, 3,5-diamino-6-iodo-N-(diaminomethylene)pyrazinecarboxamide] | – | – | % INHIBITION OF uPA ACTIVITY 20 mM INHIBITOR (human uPA; 20 mM INHIBITOR): 64.4%; % INHIBITION OF uPA ACTIVITY 100 mM INHIBITOR (human uPA; 100 mM INHIBITOR): 83.9%
12 | NC(N)=NC(=O)c1nc(Br)c(N)nc1N [Compound 6-BrA, 3,5-diamino-6-bromo-N-(diaminomethylene)pyrazinecarboxamide] | 65.6% | 69.9% | –
13 | NC(N)=NC(=O)c1nc(Br)cnc1N [Compound 6-Br-5-HA, 3-amino-6-bromo-N--(diaminomethylene)pyrazinecarboxamide] | 1% | 7.7% | –
14 | NC(=NCc1ccccc1)NC(=O)c1nc(Cl)c(N)nc1N [BENZAMIL, 3,5-diamino-6--chloro-N-(benzylaminoaminomethylene)pyrazinecarboxamide] | 1.2% | 7.7% | –
15 | CC(C)CN(C)c1nc(N)c(C(=O)N=C(N)N)nc1Cl [MIBA, 3-amino--5-(N-methyl-N-isobutylamino)-6-chloro-N-(diaminomethylene)pyrazinecarboxamide] | 18.7% | 57.3% | –
16 | CN(CC(=O)N=C(N)N)c1nc(N)c(C(=O)N=C(N)N)nc1Cl [MGCMA, 3-amino-6-chloro-5-[N-methyl-N-(guanidinocarbonylmethylamino)]-N(diaminomethylene)pyrazine carboxamide] | 29.1% | 43% | –
17 | NC(N)=NNC(=O)c1nc(Cl)c(N)nc1N [MK-875, 3,5-diamino-6-chloro-N²--(diaminomethylene)pyrazinecarbonyl hydrazide] | 1.9% | 7.3% | –
18 | NC(N)=NC(=O)c1nc(F)c(N)nc1N [Compound 6-FA, 3,5-diamino-6-fluoro-N-(diaminomethylene)pyrazinecarboxamide] | 7.1% | 27.9% | –

From patent publication EP0451130A2, “Use of amiloride and other pyrazine derivatives for preventing or treating ocular neovascularization” (priority 1990, dated 1991)
